Assay results taken from patent US12428422B2, “Purine derivatives as SIK-3 inhibitors” (RHIZEN PHARMACEUTICALS AG, priority 2020, dated 2025).

Key:
SIK3 (human) = SIK3 (human) (Homo sapiens, UniProt Q9Y2K2); assay: Enzymatic radiometric assay against human salt-inducible kinase-3 (SIK3); format: biochemical; conditions: at a concentration of 1 μM; read-out: inhibition of SIK-3 activity
Method: Assay 1: Determination of IC50 of Compound M1 Against Human Salt-Inducible Kinase-3 (SIK3) Using an Enzymatic Radiometric Assay
• SIK3 (human) was incubated with 8 mM MOPS pH 7.0, 0.2 mM EDTA, 100 uM of the peptide […] (Substrate), 10 mM Mg Acetate and [gamma-33P-ATP] (specific activity and concentration as required) in the presence of Compound M1. • The reaction was initiated by the addition of the Mg/ATP mix. • After incubation for 40 minutes at room temperature, the reaction was stopped by the addition of phosphoric acid to a concentration of 0.5%. • 10 μL of the reaction mixture was then spotted onto a P30 filtermat and washed four times for 4 minutes in 0.425% phosphoric acid and once in methanol prior to drying and scintillation counting. • The IC50 value was calculated using GraphPad Prism.

[1] = Pharmacokinetic evaluation of patient plasma samples from a human clinical trial; format: in vivo; conditions: metabolite is Compound M1
6 isoform of PI3K = 6 isoform of PI3K (Homo sapiens, UniProt O00329); conditions: background statement; cited from earlier work
Chain of 6 isoform of PI3K (O00329 whole entry, canonical isoform): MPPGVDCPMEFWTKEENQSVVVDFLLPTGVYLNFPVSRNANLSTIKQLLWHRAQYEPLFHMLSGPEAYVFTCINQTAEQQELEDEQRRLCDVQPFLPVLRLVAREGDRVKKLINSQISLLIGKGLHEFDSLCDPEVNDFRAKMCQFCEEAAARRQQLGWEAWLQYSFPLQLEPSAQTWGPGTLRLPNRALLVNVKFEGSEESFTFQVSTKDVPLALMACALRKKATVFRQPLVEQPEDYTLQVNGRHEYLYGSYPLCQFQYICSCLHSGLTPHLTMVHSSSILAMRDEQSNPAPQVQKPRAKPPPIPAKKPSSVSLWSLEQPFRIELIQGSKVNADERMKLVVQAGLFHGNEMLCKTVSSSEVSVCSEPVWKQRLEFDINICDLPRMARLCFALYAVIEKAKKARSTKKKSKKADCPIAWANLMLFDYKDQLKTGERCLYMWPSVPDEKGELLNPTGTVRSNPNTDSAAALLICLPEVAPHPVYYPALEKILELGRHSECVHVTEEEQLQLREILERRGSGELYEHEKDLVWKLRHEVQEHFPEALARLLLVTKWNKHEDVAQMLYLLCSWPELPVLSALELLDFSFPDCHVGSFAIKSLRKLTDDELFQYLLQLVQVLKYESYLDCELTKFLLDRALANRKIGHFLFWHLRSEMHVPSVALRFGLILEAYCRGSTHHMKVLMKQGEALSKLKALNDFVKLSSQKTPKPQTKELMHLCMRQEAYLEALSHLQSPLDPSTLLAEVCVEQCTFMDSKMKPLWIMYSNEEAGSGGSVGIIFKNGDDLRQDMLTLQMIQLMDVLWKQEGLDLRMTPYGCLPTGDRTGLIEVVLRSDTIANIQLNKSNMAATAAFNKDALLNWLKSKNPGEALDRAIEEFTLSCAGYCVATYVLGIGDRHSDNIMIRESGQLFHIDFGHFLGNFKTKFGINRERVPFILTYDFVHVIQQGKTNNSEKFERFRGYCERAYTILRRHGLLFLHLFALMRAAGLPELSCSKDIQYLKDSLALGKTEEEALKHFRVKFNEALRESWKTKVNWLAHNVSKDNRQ
Chain of 6 isoform of PI3K (P27986 whole entry partner, canonical isoform): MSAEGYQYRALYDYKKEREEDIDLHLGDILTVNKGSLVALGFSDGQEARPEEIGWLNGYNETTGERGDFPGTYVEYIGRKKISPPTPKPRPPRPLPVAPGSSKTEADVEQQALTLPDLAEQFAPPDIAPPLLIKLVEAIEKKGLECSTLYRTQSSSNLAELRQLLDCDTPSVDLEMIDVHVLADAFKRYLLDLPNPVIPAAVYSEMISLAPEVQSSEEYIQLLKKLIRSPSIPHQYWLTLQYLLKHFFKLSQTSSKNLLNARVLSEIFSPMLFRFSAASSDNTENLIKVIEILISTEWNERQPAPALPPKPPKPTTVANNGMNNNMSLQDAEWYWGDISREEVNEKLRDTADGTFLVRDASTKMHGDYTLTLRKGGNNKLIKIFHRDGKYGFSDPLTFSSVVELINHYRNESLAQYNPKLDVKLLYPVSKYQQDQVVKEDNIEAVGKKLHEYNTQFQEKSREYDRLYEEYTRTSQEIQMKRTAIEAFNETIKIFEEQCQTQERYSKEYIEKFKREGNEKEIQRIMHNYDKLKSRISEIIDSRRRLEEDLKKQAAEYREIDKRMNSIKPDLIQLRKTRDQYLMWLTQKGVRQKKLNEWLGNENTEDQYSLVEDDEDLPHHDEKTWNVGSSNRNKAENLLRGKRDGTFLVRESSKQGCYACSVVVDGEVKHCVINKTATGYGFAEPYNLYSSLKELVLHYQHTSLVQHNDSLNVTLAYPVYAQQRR

y isoform of PI3K = y isoform of PI3K (Homo sapiens, UniProt P48736); conditions: background statement; cited from earlier work
Chain of y isoform of PI3K (P48736 whole entry, canonical isoform): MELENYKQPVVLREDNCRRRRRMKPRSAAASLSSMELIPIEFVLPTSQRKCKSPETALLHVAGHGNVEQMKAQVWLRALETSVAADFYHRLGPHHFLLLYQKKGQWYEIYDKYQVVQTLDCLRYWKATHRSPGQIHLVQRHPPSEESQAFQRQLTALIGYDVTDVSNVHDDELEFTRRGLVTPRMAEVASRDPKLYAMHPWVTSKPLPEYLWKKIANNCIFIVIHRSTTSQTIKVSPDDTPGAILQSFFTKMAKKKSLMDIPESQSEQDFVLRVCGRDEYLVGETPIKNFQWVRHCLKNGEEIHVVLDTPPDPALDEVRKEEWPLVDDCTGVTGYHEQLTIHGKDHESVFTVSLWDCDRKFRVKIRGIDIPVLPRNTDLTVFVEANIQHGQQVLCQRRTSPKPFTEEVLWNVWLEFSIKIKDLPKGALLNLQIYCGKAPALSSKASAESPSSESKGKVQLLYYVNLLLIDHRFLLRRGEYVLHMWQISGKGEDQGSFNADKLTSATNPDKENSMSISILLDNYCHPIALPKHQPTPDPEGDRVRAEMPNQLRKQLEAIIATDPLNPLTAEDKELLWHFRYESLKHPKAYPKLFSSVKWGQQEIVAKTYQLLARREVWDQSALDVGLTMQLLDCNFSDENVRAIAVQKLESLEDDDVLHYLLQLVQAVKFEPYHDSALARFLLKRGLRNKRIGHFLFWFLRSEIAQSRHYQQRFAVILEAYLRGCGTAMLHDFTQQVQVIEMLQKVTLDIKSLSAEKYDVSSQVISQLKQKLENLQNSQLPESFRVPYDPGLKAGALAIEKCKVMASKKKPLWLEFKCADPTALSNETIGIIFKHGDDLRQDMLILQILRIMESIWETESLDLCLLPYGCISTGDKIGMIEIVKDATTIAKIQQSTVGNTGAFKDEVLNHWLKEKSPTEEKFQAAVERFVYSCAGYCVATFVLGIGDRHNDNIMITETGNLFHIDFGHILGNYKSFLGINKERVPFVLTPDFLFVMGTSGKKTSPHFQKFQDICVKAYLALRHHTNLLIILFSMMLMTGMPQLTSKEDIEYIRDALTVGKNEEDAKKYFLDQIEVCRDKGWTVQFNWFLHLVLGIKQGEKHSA

Chain of SIK3 (human) (Q9Y2K2 whole entry): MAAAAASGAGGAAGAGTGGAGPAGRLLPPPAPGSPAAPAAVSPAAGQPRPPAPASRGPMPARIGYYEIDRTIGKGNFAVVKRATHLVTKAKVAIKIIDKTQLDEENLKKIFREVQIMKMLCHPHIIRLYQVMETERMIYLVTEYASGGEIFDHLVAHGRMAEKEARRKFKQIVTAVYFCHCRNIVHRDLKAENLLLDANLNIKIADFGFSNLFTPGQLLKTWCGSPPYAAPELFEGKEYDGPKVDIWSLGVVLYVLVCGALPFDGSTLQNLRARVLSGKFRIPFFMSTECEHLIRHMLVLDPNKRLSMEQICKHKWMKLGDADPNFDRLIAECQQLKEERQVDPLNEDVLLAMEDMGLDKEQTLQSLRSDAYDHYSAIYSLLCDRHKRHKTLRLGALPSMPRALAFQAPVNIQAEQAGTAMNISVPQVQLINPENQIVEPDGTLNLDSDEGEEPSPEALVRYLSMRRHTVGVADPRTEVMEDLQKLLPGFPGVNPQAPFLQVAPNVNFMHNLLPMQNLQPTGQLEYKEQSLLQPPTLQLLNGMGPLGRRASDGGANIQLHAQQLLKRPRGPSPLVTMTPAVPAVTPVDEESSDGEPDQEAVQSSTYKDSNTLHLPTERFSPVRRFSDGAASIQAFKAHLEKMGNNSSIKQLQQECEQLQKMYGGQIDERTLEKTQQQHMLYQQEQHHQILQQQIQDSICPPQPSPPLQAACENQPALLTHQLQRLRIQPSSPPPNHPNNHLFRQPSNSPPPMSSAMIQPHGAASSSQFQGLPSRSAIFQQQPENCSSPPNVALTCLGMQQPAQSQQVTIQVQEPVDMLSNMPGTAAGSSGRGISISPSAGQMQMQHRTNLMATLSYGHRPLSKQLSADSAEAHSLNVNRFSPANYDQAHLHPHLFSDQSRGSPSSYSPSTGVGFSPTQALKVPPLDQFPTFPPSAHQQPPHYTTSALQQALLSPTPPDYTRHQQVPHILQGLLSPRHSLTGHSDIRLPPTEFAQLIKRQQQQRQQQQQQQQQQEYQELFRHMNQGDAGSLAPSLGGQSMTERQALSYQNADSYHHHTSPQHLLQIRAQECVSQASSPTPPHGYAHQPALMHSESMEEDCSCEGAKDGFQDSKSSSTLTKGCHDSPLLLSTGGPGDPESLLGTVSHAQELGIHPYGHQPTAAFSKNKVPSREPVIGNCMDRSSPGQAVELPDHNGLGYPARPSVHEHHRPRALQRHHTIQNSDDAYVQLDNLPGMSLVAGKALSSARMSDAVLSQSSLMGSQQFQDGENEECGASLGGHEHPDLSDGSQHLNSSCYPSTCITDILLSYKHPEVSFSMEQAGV

| Structure (SMILES) | inhibition at 1 µM (SIK3 (human)) [%] | metabolism in patients (metabolite formation) [1] | potency against the 6 isoform of PI3K (6 isoform of PI3K) | potency against the 7 isoform of PI3K (y isoform of PI3K) |
| --- | --- | --- | --- | --- |
| CC[C@@H](Nc1ncnc2[nH]c(O)nc12)c1oc2ccccc2c(=O)c1-c1cccc(F)c1 [Compound M2, (R)-3-(3-fluorophenyl)-2-(1-((8-hydroxy-9H-purin-6-yl)amino)propyl)-4H-chromen-4-one] | 100 | – | – | – |
| CC[C@H](Nc1ncnc2nc[nH]c12)c1oc2ccccc2c(=O)c1-c1cccc(F)c1 [Tenalisib, 3-(3-fluorophenyl)-2-[(1S)-1-(7H-purin-6-ylamino)propyl]-chromen-4-one] | – | underwent metabolism to produce in some subjects | nanomolar potency | nanomolar potency |
